Experimental data as given in US12433935B2, “Producing method of mesenchymal stem cell for prevention or treatment of brain neuronal disease including ghrelin treatment and use thereof” (Samsung Life Public Welfare Foundation, priority 2020, dated 2025).
No end group written: not given here.

Key:
[1] = test system: mouse AgRP gene; experiment: AgRP expression in mHYPOE-N46 mouse hypothalamus cell line treated with ghrelin, real-time PCR; format: cell-based; conditions: mHYPOE-N46 cells, 0, 10 pM, 1 nM, 100 nM, 6 or 12 hours, primers mAgRP1 and mAgRP2 (FIG. 3A-3D)
Procedure: An experiment was conducted to identify the change in AgRP expression level when the mouse hypothalamus cell line was directly treated with the mouse/rat recombinant ghrelin. Specifically, mHYPOE-N46 mouse hypothalamus cell line was thawed in a 175T flask and stabilized for 3 days, and then was incubated for two days in DMEM high glucose medium (Gibco, 11965-092) supplemented with 10% FBS (Biowest, 51480) and penicillin-streptomycin (Gibco, 15140122). Under 10% FBS conditions, the cells are seeded, at 0.8×10^6, in a 6 well plate and incubated for 1 day. After the incubation, the cells were treated with mouse/rat recombinant ghrelin (Phoenix Pharmaneuticals, 031-31) at concentrations of 0, 10 pM, 1 nM, and 100 nM, respectively, in FBS-free conditions. Cells were collected after 6 and 12 hours, respectively. The collected cells were treated with Trizol. mRNA was extracted therefrom. Then, real-time PCR analysis thereof was performed using two mouse AgRP primer pairs. […] After direct treatment of the cells with ghrelin for 6 or 12 hours, the expression of mAgRP was analyzed. In addition, the results of mouse AgRP expression analysis according to ghrelin treatment time using primer mAgRP2 are shown in FIG. 3C and FIG. 3D.

[2] = test system: AgRP gene; experiment: AgRP expression in mesenchymal stem cells (WJ-MSC) treated with ghrelin, real-time PCR; format: cell-based, human
Procedure: An experiment was conducted to identify the effect on the expression of AgRP (Agouti related peptide) known as a therapeutic agent for brain neuronal disease such as Alzheimer's disease in mesenchymal stem cells when the mesenchymal stem cells were directly treated with ghrelin. WJ-MSCs were thawed in a 175T flask and stabilized for 3 days, and then cultured for 2 days in MEM alpha medium (Gibco, 12571063) to which 10% FBS (Biowest, S1480) and 5 μg/ml gentamicin were added. Thereafter, the WJ-MSCs were seeded, at 0.8×10^6, on a 6-well plate under 10% FBS conditions and incubated for 1 day. After the incubation, the WJ-MSCs were treated with human recombinant ghrelin (Phoenix Pharmaneuticals, 031-30) at concentrations of 0, 10 pM, 1 nM, and 100 nM, respectively, under FBS-free conditions. Cells were collected after 6 and 12 hours, respectively. The collected WJ-MSC was treated with Trizol, and mRNA was extracted therefrom. Then, real-time PCR analysis thereof was performed using human AgRP Primer. The results of treatment of the cells with human recombinant ghrelin at various concentrations for 6 hours are shown in FIG. 2A. The results of treatment of the cells with human recombinant ghrelin at various concentrations for 12 hours are shown in FIG. 2B.

Substance | expression of mouse AgRP gene [1] | expression of AgRP gene ([2]; WJ-MSC, 0, 10 pM, 1 nM, 100 nM, FBS-free, 6 hours and 12 hours (FIG. 2A, 2B)) | expression of AgRP ([2]; WJ-MSC, 100 nM concentration, 6 and 12 hours)
mouse ghrelin: mouse/rat recombinant ghrelin (Phoenix Pharmaneuticals, 031-31) (GSSFLSPEHQKAQQRKESKKPPAKLQPR; ends and bridges not checked; UniProt Q9EQX0 24-51, looked up) | increased according to the concentration of ghrelin |  | 
human recombinant ghrelin: human recombinant ghrelin (Phoenix Pharmaneuticals, 031-30); hormone that increases appetite (GSSFLSPEHQRVQQRKESKKPPAKLQPR; ends and bridges not checked; UniProt Q9UBU3 24-51, looked up) |  | increased based on the treatment concentration | significantly increased
